Among the test systems are HS 578T breast; HT29 colon; M14 melanoma; MCF7 breast; MDA-MB-231 breast; RPMI-8226 leukemia; SK-OV-3 ovarian; SN12C renal; SNB-19 CNS; UACC-62 melanoma.
Test in all cases: NCI anticancer screen, dose series, 48 h

“And” between values parts separate entries of the source, which are not always exact repeats. Equal values may be shown once.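 Cells were grown in 96-well plates and exposed to each compound for 48 hours at five concentrations; endpoints were interpolated linearly between bracketing concentrations, or set to the highest concentration if not reached. GI50 is the concentration that inhibits growth by half. TGI marks complete inhibition of growth.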 Bounds are passed on as bounds.

On to `COc1ccccc1C#Cc1ccccc1C#CCCCCCC#Cc1ccccc1C#Cc1ccccc1OC`, for which the GI50 in the test on HS 578T breast was above 100 µM; with HT29 colon, 24.6 µM; in the test with M14 melanoma, 48.7 µM; in the test with MCF7 breast, 17.3 µM; in the test on MDA-MB-231 breast it was 60.3 µM; in the test with RPMI-8226 leukemia, 29 µM. For the same molecule, the GI50 in the test on SK-OV-3 ovarian, with SN12C renal, with SNB-19 CNS and in the test on UACC-62 melanoma was above 100 µM in each case. Moreover, the TGI with HS 578T breast, in the test on HT29 colon, in the test on M14 melanoma, with MCF7 breast, in the test with MDA-MB-231 breast and with RPMI-8226 leukemia was above 100 µM in each case. Moreover, the TGI in the test on SK-OV-3 ovarian, in the test on SN12C renal, with SNB-19 CNS and in the test on UACC-62 melanoma was above 100 µM in each case.

In the case of `N#CCc1ncc(-c2ccc(C(F)(F)F)cc2)c(NC2CCCCCC2)n1`, the GI50 in the test on HS 578T breast, with HT29 colon, in the test on M14 melanoma, in the test on MCF7 breast, in the test with MDA-MB-231 breast and with RPMI-8226 leukemia was above 10 µM each time. Also, the GI50 in the test with SK-OV-3 ovarian, in the test with SN12C renal, in the test on SNB-19 CNS and in the test on UACC-62 melanoma was above 10 µM in each case. For the same molecule, the TGI with HS 578T breast, in the test with HT29 colon, in the test on M14 melanoma, in the test with MCF7 breast, in the test with MDA-MB-231 breast and with RPMI-8226 leukemia was above 10 µM each time. Besides, the TGI in the test with SK-OV-3 ovarian, in the test with SN12C renal, with SNB-19 CNS and in the test with UACC-62 melanoma was above 10 µM throughout.

Consider `COc1cc2c[n+](C)c3c4ccccc4ccc3c2cc1OC` (tested in a mixture with another compound), for which the GI50 is 3.35 µM with HS 578T breast; 3.94 µM in the test on HT29 colon; 8.31 µM in the test on M14 melanoma; 19.8 µM in the test on MCF7 breast; 10.3 µM with MDA-MB-231 breast; 1.71 µM in the test with RPMI-8226 leukemia. Also, the results for the GI50 with SN12C renal, in the test with SNB-19 CNS and in the test on UACC-62 melanoma were 1.07 µM, 0.964 µM and 3.08 µM, respectively. In addition, the TGI in the test with HS 578T breast was 18.4 µM; in the test on HT29 colon, 32.4 µM; with M14 melanoma it was 51.9 µM; in the test on MDA-MB-231 breast, 9.2 µM and 25.6 µM; in the test on SK-OV-3 ovarian, 51.2 µM; in the test with SN12C renal, 5.58 µM and 17.7 µM. In addition, the results for the TGI in the test on SNB-19 CNS and in the test on UACC-62 melanoma were 25.1 µM and 20.3 µM, respectively.

As for `O=C(CCl)N1c2ccccc2Sc2ccc3ccccc3c21`, the GI50 in the test on HS 578T breast is 2.04 µM; with HT29 colon it was 1.28 µM; in the test with M14 melanoma, 1.66 µM; in the test on MCF7 breast it was 1.49 µM; with MDA-MB-231 breast, 1.64 µM; in the test on RPMI-8226 leukemia it was 1.32 µM. Moreover, the GI50 in the test with SK-OV-3 ovarian was 1.79 µM; in the test on SN12C renal, 1.59 µM; in the test with SNB-19 CNS, 1.58 µM; in the test on UACC-62 melanoma it was 1.53 µM. For the same molecule, the TGI in the test with HS 578T breast amounted to 6.56 µM; in the test with HT29 colon it was 4.58 µM; in the test on M14 melanoma it was 3.43 µM; with MCF7 breast it was 3.29 µM; with MDA-MB-231 breast, 3.14 µM; in the test with RPMI-8226 leukemia it was 4.06 µM. For the same molecule, the TGI in the test on SK-OV-3 ovarian was determined as 3.18 µM; in the test on SN12C renal, 2.98 µM; in the test with SNB-19 CNS, 3.09 µM; in the test with UACC-62 melanoma, 2.88 µM.

With `Cc1ccc(SC2=CC(=O)c3nc4ccccc4c4ccnc2c34)cc1`, the GI50 with HS 578T breast is 43.8 µM; with HT29 colon it was 38 µM; in the test with M14 melanoma it was 51.9 µM; with MCF7 breast, 26.8 µM; with MDA-MB-231 breast it was 23.4 µM; with RPMI-8226 leukemia, 30.1 µM. Further, the GI50 was above 100 µM in the test with SK-OV-3 ovarian, 66.6 µM in the test on SN12C renal, above 71.2 µM in the test with SNB-19 CNS and 43.3 µM with UACC-62 melanoma. The TGI with HS 578T breast is above 95 µM; with HT29 colon it was above 100 µM; in the test on M14 melanoma it was above 100 µM; in the test with MCF7 breast it was above 68.6 µM; in the test on MDA-MB-231 breast, 60 µM; in the test with RPMI-8226 leukemia it was above 100 µM. For the same molecule, the TGI in the test with SK-OV-3 ovarian, in the test on SN12C renal, with SNB-19 CNS and in the test with UACC-62 melanoma was above 100 µM throughout.

For the molecule `C=C(c1ccc(C(=O)N(C)c2ccccc2N)cc1)C(C)N1C(=O)[C@H]2CCCN2C(=O)c2ccccc21` (some centres not stated), the GI50 in the test with HS 578T breast is 53.1 µM; in the test on HT29 colon, 16.1 µM; with M14 melanoma, 50.1 µM; in the test on MCF7 breast, 23.2 µM; with MDA-MB-231 breast, 58.5 µM; in the test with RPMI-8226 leukemia, 7.52 µM. In addition, the GI50 in the test with SK-OV-3 ovarian was 6.72 µM; in the test on SN12C renal, 26.4 µM; with SNB-19 CNS it was above 100 µM; with UACC-62 melanoma, 24 µM. The TGI in the test on HS 578T breast is above 100 µM; in the test on HT29 colon it was 80.2 µM; in the test on M14 melanoma it was above 100 µM; with MCF7 breast it was above 100 µM; with MDA-MB-231 breast it was above 100 µM; in the test on RPMI-8226 leukemia it was 37.7 µM. For the same molecule, the TGI was 84.2 µM in the test with SK-OV-3 ovarian, above 100 µM with SN12C renal, above 100 µM in the test with SNB-19 CNS and above 100 µM with UACC-62 melanoma.

For the origin of these results see PubChem BioAssay (NCI).
